Laboratory results: publication PMC6614837 (Nucleic Acids Research, 2019)

Target: T1, P protein from T. maritima (Thermotoga maritima, UniProt Q9X1H4)
T1 construct: GST (cleaved yes); made in house; host or cells: E. coli BL21(DE3)pLysS
T1 sequence (Q9X1H4 1-117): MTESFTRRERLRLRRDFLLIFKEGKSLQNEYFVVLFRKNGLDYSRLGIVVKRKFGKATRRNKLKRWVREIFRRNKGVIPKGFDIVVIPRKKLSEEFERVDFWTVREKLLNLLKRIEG
Assay: Biolayer interferometry binding to immobilized His-tagged P protein
Conditions: BLI, P protein on Ni-NTA, 1:1 Langmuir model
Procedure: Immobilization of the His-tagged P protein from T. maritima at 0.05 mg/ml (3.4 μM) was performed on Ni-NTA biosensors. For the initial binding tests to the P protein, a compound concentration of 1 mM was used. Periods for each step of the assay were as follows: immobilization (400 s), wash (100 s), baseline establishment (100s), association (250 s), dissociation (250 s). For each titration curve, […] were used corresponding to the 125, 62.5, 31.25, 15.6 and 7.8 μM compound concentrations. Control biosensors were used to subtract non-specific binding of compounds to the biosensor surface. […] Kinetic binding parameters were calculated using Data Analysis 8.2 (ForteBio, Inc.). […]
Figure 5. […] Association and dissociation of the 5′ RNA leader to the P protein (TmP) is measured over time. […] P protein was immobilized on Ni-NTA biosensors after which its association and dissociation from indicated compounds were monitored. […] (C) Location of purpurin (green) on the T. maritima P protein as determined by X-ray crystallography (PDB code: 6MAX; see Supplementary Figure S19 and Supplementary Table S2). […]
Supplementary Figure 15. […] The pre-tRNA in buffer HAAMD (20 mM HEPES pH 7.4, 100 mM ammonium acetate, 10 mM MgCl2, 5% DMSO or 5% PEG 200) was measured against RNase P in concentrations ranging from 62.5 to 7.8 nM in a two-fold dilution series. […]

SMILES: O=C1c2ccccc2C(=O)c2c(O)c(O)cc(O)c21 [Purpurin, 1,2,4-trihydroxyanthraquinone]
- Kd: 6.8 µM
